From ChEMBL document CHEMBL3390848, “Affinity selection and sequence-activity relationships of HIV-1 membrane fusion inhibitors directed at the drug-resistant variants” (Medchemcomm, 2010) come the findings set out here.

Test [1] concerns Human immunodeficiency virus 1. In words: Antiviral activity against HIV1 NL4-3 harboring gp41 D36G mutant infected in human HeLa cells expressing CD4-LTR-beta-gal assessed as inhibition of viral replication after 48 hrs by MAGI assay. It is filed as functional, organism-based.
In test [2] the test system is Human immunodeficiency virus 1. Briefly: Thermal stability of HIV1 envelope glycoprotein gp41 His-tagged N-terminal heptad repeat N54-drug complex assessed as thermal unfolding transition state by measuring molar ellipticity at 4 to 90 degC by circular dichroic spectra analysis.
For test [3], the system named is Human immunodeficiency virus 1. In words: Binding affinity to HIV1 His-tagged N-terminal heptad repeat of envelope glycoprotein gp41 assessed as recovery of N54-drug complex after 2 hrs by LC-MS analysis. More on the design: concentration or dose not given beside the values.

SMILES strings stand for the structures. Residues, ends and D or L forms follow the SMILES beside them.

As to `CC[C@H](C)[C@H](NC(=O)[C@H](CC(C)C)NC(=O)[C@H](CCC(=O)O)NC(=O)[C@H](CCC(=O)O)NC(=O)[C@@H](NC(=O)[C@H](CC(C)C)NC(=O)[C@H](CO)NC(=O)[C@@H](NC(=O)[C@H](Cc1ccc(O)cc1)NC(C)=O)[C@@H](C)O)[C@@H](C)CC)C(=O)N[C@@H](CCCCN)C(=O)N[C@@H](CCCCN)C(=O)N[C@@H](CCSC)C(=O)N[C@@H](CCC(=O)O)C(=O)N[C@@H](CCC(=O)O)C(=O)N[C@@H](CCC(N)=O)C(=O)N[C@@H](CCC(N)=O)C(=O)N[C@@H](CCCCN)C(=O)N[C@@H](CCCCN)C(=O)N[C@@H](CC(N)=O)C(=O)N[C@@H](CCC(=O)O)C(=O)N[C@@H](CCC(=O)O)C(=O)N[C@@H](CCC(=O)O)C(=O)N[C@@H](CC(C)C)C(=O)N[C@@H](CCCCN)C(=O)N[C@@H](CCCCN)C(=O)N[C@@H](CC(C)C)C(=O)N[C@@H](CCC(=O)O)C(=O)N[C@@H](CCC(=O)O)C(=O)N[C@@H](Cc1c[nH]c2ccccc12)C(=O)N[C@@H](C)C(=O)N[C@@H](CCCCN)C(=O)N[C@@H](CCCCN)C(=O)N[C@@H](Cc1c[nH]c2ccccc12)C(=O)N[C@@H](CC(N)=O)C(=O)N[C@@H](Cc1c[nH]c2ccccc12)C(=O)N[C@@H](Cc1ccccc1)C(N)=O` (Ac-YTSLIEELIKKMEEQQKKNEEELKKLEEWAKKWNWF-NH2), in test [1], the EC50 was found to be 0.2 nM. The Tm in test [2] is 79 °C. The Activity in test [3] was 9.9%.
The corresponding values for `CC[C@H](C)[C@H](NC(=O)[C@H](CC(C)C)NC(=O)[C@H](CCC(=O)O)NC(=O)[C@H](CCC(=O)O)NC(=O)[C@@H](NC(=O)[C@H](CC(C)C)NC(=O)[C@H](CO)NC(=O)[C@@H](NC(=O)[C@H](Cc1ccc(O)cc1)NC(C)=O)[C@@H](C)O)[C@@H](C)CC)C(=O)N[C@@H](CCCCN)C(=O)N[C@@H](CCCCN)C(=O)N[C@@H](CC(N)=O)C(=O)N[C@@H](CCC(=O)O)C(=O)N[C@@H](CCC(=O)O)C(=O)N[C@@H](CCC(N)=O)C(=O)N[C@@H](CCC(N)=O)C(=O)N[C@@H](CCCCN)C(=O)N[C@@H](CCCCN)C(=O)N[C@@H](CC(N)=O)C(=O)N[C@@H](CCC(=O)O)C(=O)N[C@@H](CCC(=O)O)C(=O)N[C@@H](CCC(=O)O)C(=O)N[C@@H](CC(C)C)C(=O)N[C@@H](CCCCN)C(=O)N[C@@H](CCCCN)C(=O)N[C@@H](CC(C)C)C(=O)N[C@@H](CCC(=O)O)C(=O)N[C@@H](CCC(=O)O)C(=O)N[C@@H](Cc1c[nH]c2ccccc12)C(=O)N[C@@H](C)C(=O)N[C@@H](CCCCN)C(=O)N[C@@H](CCCCN)C(=O)N[C@@H](Cc1c[nH]c2ccccc12)C(=O)N[C@@H](CC(N)=O)C(=O)N[C@@H](Cc1c[nH]c2ccccc12)C(=O)N[C@@H](Cc1ccccc1)C(N)=O` (Ac-YTSLIEELIKKNEEQQKKNEEELKKLEEWAKKWNWF-NH2) are 4.8 nM, 65.7 °C and 3.5%.
The corresponding values for `CC[C@H](C)[C@H](NC(=O)[C@H](CC(C)C)NC(=O)[C@H](CCC(=O)O)NC(=O)[C@H](CCC(=O)O)NC(=O)[C@@H](NC(=O)[C@H](CC(C)C)NC(=O)[C@H](CO)NC(=O)[C@@H](NC(=O)[C@H](Cc1ccc(O)cc1)NC(C)=O)[C@@H](C)O)[C@@H](C)CC)C(=O)N[C@@H](CCCCN)C(=O)N[C@@H](CCCCN)C(=O)N[C@@H](CCC(N)=O)C(=O)N[C@@H](CCC(=O)O)C(=O)N[C@@H](CCC(=O)O)C(=O)N[C@@H](CCC(N)=O)C(=O)N[C@@H](CCC(N)=O)C(=O)N[C@@H](CCCCN)C(=O)N[C@@H](CCCCN)C(=O)N[C@@H](CC(N)=O)C(=O)N[C@@H](CCC(=O)O)C(=O)N[C@@H](CCC(=O)O)C(=O)N[C@@H](CCC(=O)O)C(=O)N[C@@H](CC(C)C)C(=O)N[C@@H](CCCCN)C(=O)N[C@@H](CCCCN)C(=O)N[C@@H](CC(C)C)C(=O)N[C@@H](CCC(=O)O)C(=O)N[C@@H](CCC(=O)O)C(=O)N[C@@H](Cc1c[nH]c2ccccc12)C(=O)N[C@@H](C)C(=O)N[C@@H](CCCCN)C(=O)N[C@@H](CCCCN)C(=O)N[C@@H](Cc1c[nH]c2ccccc12)C(=O)N[C@@H](CC(N)=O)C(=O)N[C@@H](Cc1c[nH]c2ccccc12)C(=O)N[C@@H](Cc1ccccc1)C(N)=O` (Ac-YTSLIEELIKKQEEQQKKNEEELKKLEEWAKKWNWF-NH2) are 7.9 nM, 60 °C and 2.2%.
